Source: ChEMBL document CHEMBL1201862, “PubChem BioAssay data set” (2004)
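Protocol summary: plate cells (96-well), add compound at 5 concentrations, incubate 48 h, interpolate endpoints linearly. At the GI50, growth is halved.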 Activity calls are given as the source filed them. No stated cut-off is given here; in the data, active = GI50 up to about 1.1 µM and inactive = higher.

Assays:
Experiment in all cases: growth of human tumour cells (NCI), 48 h
[1] = test system: XF498
[2] = test system: KM-20L2
[3] = test system: HOP-18
[4] = test system: DMS-114
[5] = test system: DMS-273
[6] = test system: DLD-1
[7] = test system: Hs-578T
[8] = test system: LXFL 529

O=C1c2ccccc2C(O)(C(=O)O)C1(O)CC=C(Cl)Cl (stereo not given)
GI50 [1]: > 125 µM (inactive)
GI50 [2]: > 125 µM (inactive)
GI50 [3]: > 125 µM (inactive)
GI50 [4]: > 125 µM (inactive)
GI50 [5]: > 125 µM (inactive)
GI50 [6]: > 125 µM (inactive)

Cc1ccc2c(O)cc(-c3sccc3C)nc2n1
GI50 [7]: 0.794 µM (active)

C=C(Cl)/C(=C\Br)CCC(Cl)C(C)C.C=C(Cl)/C(=C\Cl)CCC(Cl)C(C)C (stereo not given)
GI50 [7]: 11.9 µM (inactive)

Clc1ccccc1C(n1ncc2ccccc21)n1ncc2ccccc21
GI50 [8]: 37 µM (inactive)
GI50 [1]: 14.5 µM (inactive)
GI50 [4]: 31.3 µM (inactive)
GI50 [5]: 45.2 µM (inactive)
GI50 [6]: 40.5 µM (inactive)

C=C[C@@](C)(/C=C/c1ccc(O)cc1)CCC=C(C)C [BAKUCHIOL]
GI50 [7]: 20.9 µM (inactive)

Clc1ccc(OCc2nnc3sc(-c4ccc(-c5ccc(Cl)cc5Cl)o4)nn23)c(Cl)c1
GI50 [7]: 19.7 µM (inactive)

O=C(O)C(Cc1cccs1)NC(=O)C(F)(F)F (stereo not given)
GI50 [2]: > 100 µM (inactive)
GI50 [3]: > 100 µM (inactive)
GI50 [4]: > 100 µM (inactive)
GI50 [5]: > 100 µM (inactive)
GI50 [6]: > 100 µM (inactive)

O=C1Cc2c([nH]c3cc(Br)ccc23)-c2ccccc2N1
GI50 [7]: 14.8 µM (inactive)

CCC1(O)CC(O)c2c(O)c3c(c(O)c2C1C(=O)OC)C(=O)c1cccc(O)c1C3=O (stereo not given)
GI50 [7]: 4.7 µM (inactive)

C=CC1=C(C)c2cc3[nH]c(c4c5nc(cc6[nH]c(cc1n2)c(C)c6CC)C=C5C(=O)C4C(=O)OC)C(CCC(=O)OC/C=C(\C)CCCC(C)CCCC(C)CCCC(C)C)C3C.C=CC1=C(C)c2cc3[nH]c(c4c5nc(cc6[nH]c(cc1n2)c(C=O)c6CC)C=C5C(=O)C4C(=O)OC)C(CCC(=O)OC/C=C(\C)CCCC(C)CCCC(C)CCCC(C)C)C3C (stereo not given)
GI50 [7]: > 100 µM (inactive)

COc1ccc(C(c2ccc(C(C)C)cc(=O)c2O)c2ccc3cccnc3c2O)cc1 (stereo not given)
GI50 [8]: 0.506 µM (active)
GI50 [1]: 2.17 µM (inactive)
GI50 [4]: 0.173 µM (active)
GI50 [5]: 0.31 µM (active)
GI50 [6]: 0.45 µM (active)

CCOP(=O)(OCC)C(Nc1ccc(C(=O)O)cc1)c1ccc(C(Nc2ccc(C(=O)O)cc2)P(=O)(OCC)OCC)cc1 (stereo not given)
GI50 [7]: > 100 µM (inactive)

COc1ccc2c(c1)Cc1c(NCCN(C)C)ccc(C(=O)NCCCN(C)CCCNC(=O)c3ccc(NCCN(C)C)c4c3Nc3ccc(OC)cc3C4)c1N2
GI50 [7]: < 0.01 µM (active)

O=C1C(=C2CCCC2)CCC1CN1CCCCC1 (stereo not given)
GI50 [8]: 13.2 µM (inactive)
GI50 [2]: 17.5 µM (inactive)
GI50 [3]: 15.3 µM (inactive)
GI50 [4]: 17.5 µM (inactive)

COc1cc(OC2OC(CO)C(O)C(O)C2O)c2c(O)c3c(=O)cc(C)oc3cc2c1 (stereo not given)
GI50 [7]: > 100 µM (inactive)

O=C1CC2(CCC(O)(c3cccc4ccccc34)C(C(=O)c3cccc4ccccc34)C2)C(=O)c2ccccc2N1 (stereo not given)
GI50 [7]: 6.78 µM (inactive)

Clc1cc2nsnc2c(Cl)n1
GI50 [8]: 14.4 µM (inactive)
GI50 [1]: 17.3 µM (inactive)
GI50 [2]: 37.6 µM (inactive)
GI50 [3]: 17.5 µM (inactive)
GI50 [4]: 15.6 µM (inactive)
GI50 [5]: 36.3 µM (inactive)
GI50 [6]: 20.3 µM (inactive)

CC(C)=CCc1c(O)c(CC2=C(O)C(CC=C(C)C)(C(=O)C(C)C)C(O)=C(C)C2=O)c(O)c(C(=O)C(C)C)c1O (stereo not given)
GI50 [7]: 9.89 µM (inactive)

COc1ccc(C2=C(N)c3c(Cl)cccc3C2=O)cc1
GI50 [7]: 26.1 µM (inactive)

NC1C(O)C(O)C(CO)OC1n1cc(F)c(=O)[nH]c1=O (stereo not given)
GI50 [8]: > 100 µM (inactive)
GI50 [3]: > 100 µM (inactive)
GI50 [4]: > 100 µM (inactive)
GI50 [5]: > 100 µM (inactive)
GI50 [6]: > 100 µM (inactive)

CC1CC(C)(O)C2C3(C)CCCC2(COC3=O)C12CCC1(CCOC1=O)O2 (stereo not given)
GI50 [1]: 38.3 µM (inactive)
GI50 [2]: > 250 µM (inactive)
GI50 [3]: > 250 µM (inactive)
GI50 [4]: > 250 µM (inactive)
GI50 [5]: > 250 µM (inactive)
GI50 [6]: > 250 µM (inactive)

Cc1c2ccncc2c(C)c2c1[nH]c1ccccc12 [ELLIPTECINE]
GI50 [1]: 1.81 µM (inactive)
GI50 [2]: 0.548 µM (active)
GI50 [3]: 1.49 µM (inactive)
GI50 [4]: 0.94 µM (active)
GI50 [5]: 0.378 µM (active)
GI50 [6]: 0.509 µM (active)

CN1Cc2cc3c(cc2-c2ccccc21)OCO3
GI50 [8]: > 100 µM (inactive)
GI50 [1]: > 100 µM (inactive)
GI50 [2]: 91.6 µM (inactive)
GI50 [3]: > 100 µM (inactive)
GI50 [5]: > 100 µM (inactive)
GI50 [6]: > 100 µM (inactive)

CS(=O)(=O)OCCCNCCCOS(C)(=O)=O
GI50 [1]: 938 µM (inactive)
GI50 [7]: 2090 µM (inactive)
GI50 [2]: 1990 µM (inactive)
GI50 [3]: 1420 µM (inactive)
GI50 [4]: 849 µM (inactive)
GI50 [5]: 328 µM (inactive)
GI50 [6]: 2810 µM (inactive)

CC1(C)C=CC(=O)C(O)C(C)(C)C1=O (stereo not given)
GI50 [7]: 28.8 µM (inactive)

O=C(NCCCl)O/N=C/c1cccnc1
GI50 [1]: > 100 µM (inactive)
GI50 [3]: > 100 µM (inactive)
GI50 [4]: > 100 µM (inactive)
GI50 [5]: > 100 µM (inactive)
GI50 [6]: > 100 µM (inactive)

CC(=O)[C@H]1CC[C@@H]2[C@]1(C)CC=C1[C@]23C=C[C@]2(C[C@@H](O)CC[C@]12C)C(C(=O)O)C3C(=O)O (stereo not given in full)
GI50 [7]: > 100 µM (inactive)

C[C@]12CC[C@H](O)CC1=CC[C@@H]1[C@@H]2CC[C@]2(C)C(=O)CC[C@@H]12 [PRASTERONE]
GI50 [7]: 45.6 µM (inactive)

CN(C)c1nc(-c2ccccc2)c(C(=O)c2c[nH]c3ccccc23)s1
GI50 [7]: 4.75 µM (inactive)

COC(=O)[C@H](Cc1ccccc1)NP(=O)(O)OCC1C=CC(n2cc(C)c(=O)[nH]c2=O)O1 (stereo not given in full)
GI50 [7]: > 100 µM (inactive)
